Earlier results in patent US11603489B2, “Method for inhibiting water permeation in an extraction well of a hydrocarbon oil from an underground reservoir” (priority 2016, dated 2023).
Read-outs that look alike come from different tables or passages of the source.

Assays:
[1] = not given; remark: listed apart in the source
[2] = temperature at which the initiator has a half-life of 10 hours
[3] = temperature at which the initiator has a half-life of 10 hours, in benzene
[4] = distribution coefficient between water and 1-octanol

Compound | Log P octanol/water [1, 4] | T1/2(10 h) in water [2] | further results
CC(C)(C)OOC(=O)c1ccccc1 [tert-butyl peroxybenzoate] | > 0 | – | T1/2(10 h) in benzene [3]: 73 °C
CC(C)(C#N)N=NC(N)=O [Composition V-30, 1-[(1-cyano-1-methylethyl)azo]formamide] | > 0 | – | T1/2(10 h) in benzene [3]: 104 °C
O=C(OOC(=O)c1ccccc1)c1ccccc1 [benzoyl peroxide] | > 0 | – | –
CCCCCCCCCCCC(=O)OOC(=O)CCCCCCCCCCC [lauroyl peroxide] | > 0 | – | T1/2(10 h) in benzene [3]: 75 °C
C=CCNC(=O)C(C)(C)N=NC(C)(C)C(=O)NCC=C [VF-096, 2,2′-azobis[N-(2-propenyl)-2-methylpropionamide]] | – | – | T1/2(10 h) in benzene: 96 °C; Log P octanol/water [1]: > 0
CCC(C)(N=NC(C)(CC)C(=N)N1CCCC1)C(=N)N1CCCC1.Cl.Cl (stereo not drawn) [VA-067, 2,2′-Azobis(1-imino-1-pyrrolidine-2-ethylpropane)-dihydrochloride] | – | 67 °C | –
CC(C)(N=NC(C)(C)C(=N)N)C(=N)N.Cl.Cl [2,2′-Azobis(2-methylpropionamidine) dihydrochloride] | – | – | T1/2(10 h) in water ([2]; dihydrochloride): 55 °C
CC(C)(C)OOC(C)(C)C [tert-butyl peroxide] | > 0 | – | T1/2(10 h) in benzene [3]: 70 °C
N.N.O=S(=O)(O)OOS(=O)(=O)O [ammonium persulfate] | – | 65 °C | –
O=S(=O)([O-])OOS(=O)(=O)[O-].[Na+].[Na+] [sodium persulfate] | – | 65 °C | –
CC(C)(OOC(C)(C)c1ccccc1)c1ccccc1 [dicumyl peroxide] | > 0 | – | T1/2(10 h) in benzene [3]: 75 °C
CC(C)(N=NC(C)(C)C1=NCCN1)C1=NCCN1 [VA-061, 2,2′-Azobis[2-(2-imidazolin-2-yl)propane]] | – | 61 °C | –
CC(C)(N=NC(C)(C)C(=O)NC(CO)(CO)CO)C(=O)NC(CO)(CO)CO [VA080, 2,2′-Azobis{2-methyl-N-[1,1-bis(hydroxymethyl)-2-hydroxyethyl]propionamide}] | – | 80 °C | Log P octanol/water [1]: < 0
O=S(=O)([O-])OOS(=O)(=O)[O-].[K+].[K+] [potassium persulfate] | – | 65 °C | –
CC(C)(N=NC(C)(C)C(=O)NCCO)C(=O)NCCO [VA086, 2,2′-Azobis[2-methyl-N-(2-hydroxyethyl)propionamide]] | – | 87 °C | –
CC(C#N)(CCC(=O)O)N=NC(C)(C#N)CCC(=O)O (stereo not drawn) [4,4′-Azobis(4-cyanovaleric acid)] | – | 50 °C | –
CC(C)(N=NC(C)(C)C(=O)NC1CCCCC1)C(=O)NC1CCCCC1 [VAm-111, 2,2′-azobis(N-cyclohexyl-2-methylpropionamide)] | – | – | T1/2(10 h) in benzene: 111 °C; Log P octanol/water [1]: > 0
CCCCNC(=O)C(C)(C)N=NC(C)(C)C(=O)NCCCC [VAm-110, 2,2′-azobis(N-butyl-2-methylpropionamide)] | – | – | T1/2(10 h) in benzene: 110 °C; Log P octanol/water [1]: > 0
O.O.O=S(=O)([O-])CO.[Na+] [hydroxymethanesulfonic acid monosodium salt dihydrate] | < 0 | 60 °C | –
CC(C)(N=NC(C)(C)C1=NCCN1)C1=NCCN1.Cl.Cl [VA-044, 2,2′-Azobis[2-(2-imidazolin-2-yl)propane]dihydrochloride] | – | 44 °C | –
CCC(C)(C#N)N=NC(C)(C#N)CC (stereo not drawn) [Composition V-59, 2,2′-azobis(2-methylbutyronitrile)] | > 0 | – | –
CC(C)(N=NC(C)(C)C1=NCCN1CCO)C1=NCCN1CCO.Cl.Cl [VA-060, 2,2′-Azobis{2-[1-(2-hydroxyethyl)-2-imidazolinyl]propane}-dihydrochloride] | < 0 | 60 °C | –
CC(C)(N=NC(C)(C)C1=NCCN1)C1=NCCN1.O.O.O=S(=O)(O)O.O=S(=O)(O)O [VA-046B, 2,2′-Azobis[2-(2-imidazolin-2-yl)propane]disulfate dihydrate] | – | 47 °C | –
CC(C)(N=NC(C)(C)C(=N)NCCC(=O)O)C(=N)NCCC(=O)O.O.O.O.O [VA-057, 2,2′-Azobis[N-(2-carboxyethyl)-2-methylpropionamidine]tetrahydrate] | < 0 | 57 °C | –
